This note sets out measurements from patent US11517556B2, “Composition for BKCa channel activation” (GWANGJU INSTITUTE OF SCIENCE AND TECHNOLOGY, priority 2016, dated 2022).

Experiment [1] has as its target T1, rat BKCa channel α-subunit (rSlo1) (Rattus norvegicus, UniProt Q62976).
T1 construct: expressed in transfected cells; host or cells: Xenopus laevis oocytes injected with cRNA (vector pNBC1.0)
In words: Single-channel patch-clamp recording, outside-out patches of Xenopus oocytes. Type of experiment: cell-based. Particulars: 5 μM. An excerpt: Xenopus laevis oocytes heterologously expressing a BKCa channel α-subunit (Slo1) were used for electrophysiological recording. Subcloning and functional expression of the rat BKCa channel α-subunit using the oocyte expression vector pNBC1.0 has been reported (Ha et al., 2000). Sequence information of Slo1 used in the present disclosure is published in GenBank as expression number AF135265. Plasmid DNA was linearized using Notl restriction enzyme, and complementary RNA (cRNA) was synthesized using T7 RNA polymerase in the presence of nucleoside triphosphate and cap analog m7G(5′)ppp(5′)G from a linear form of DNA using mMessage Machine (Ambion).
Oocytes from stages V to VI were surgically removed from ovarian lobes of anesthetized X. laevis (Xenopus I, Dexter, Mich.). The removed oocytes were transferred to a Ca^2+-free oocyte ringer's (OR) culture medium (86 mM NaCl, 1.5 mM KCl, 2 mM MgCl2 and 10 mM HEPES, pH 7.6). The oocytes were cultured in Ca^2+-free OR medium containing 3 mg/ml collagenase (Worthington Biochemicals) for 1 hour and 30 minutes to 2 hours. This removed the follicular cell layer of the oocyte. Then, the oocytes were widely washed with Ca^2+-free OR culture medium and ND-96 medium (96 mM NaCl, 2 mM KCl, 1.8 mM CaCl2, 1 mM MgCl2, 5 mM HEPES, and 50 µg/ml gentamycin, pH 7.6). The washed oocytes were stored at 18° C. in ND-96 medium. Before oocyte was used, the oocyte was stabilized for at least one day. After the stabilization, approximately 50 ng of synthesized cRNA in 50 nl of nuclease-free water was injected into each oocyte for macroscopic current recording, and approximately 1 ng of synthesized cRNA in 50 nl of nuclease-free water was injected into each oocyte for single-channel recording using a micro-dispenser (Drummond Scientific, Broomall, Pa.). The cRNA-injected oocytes were cultured in ND-96 medium for 1 to 3 days at 18 degree C. Immediately prior to the patch-clamp experiment, the oocyte's vitelline membrane was manually removed with fine forceps. […]
A single BKCa channel was readily activated by a membrane potential simply transferred at 100 mV at a high concentration of intracellular Ca^2+. For the single-channel assay, the switching between the closed and open conditions was determined by setting a potency at a half of a unitary current amplitude. […] The macroscopic current of the expressed BKCa channel was activated by a voltage-clamp pulse delivered from a holding potential of −100 mV at 10 mV increment to a membrane potential of typically −80 to 200 mV, A dwell-time of recorded open and close events for the single BKCa channel was analyzed using a linear histogram method. […]
On the technique in general: Patch clamp records ionic current or voltage across a cell membrane.

Experiment [2] deals with spontaneous hypertensive rats (SHR). Briefly: Voiding behavior of spontaneous hypertensive rats (SHR). Type of experiment: in vivo, rat. How it is done: The voiding frequency was monitored for 3 hours. FIG. 9B represents a total number of voidings. Each symbol or bar represents average±SEM of 5 (WKY) or 7 (SHR) animals (*** P<0.001).
The cumulative voiding frequency is shown in FIG. 9A for WKY and SHR orally administered with kurarinone. The administration of kurarinone may allow distinct differences in voiding frequency to be evident between WKY and SHR. […] In the WKY control rat, the decrease of the voiding frequency was not observed.

T1 sequence (Q62976 whole entry): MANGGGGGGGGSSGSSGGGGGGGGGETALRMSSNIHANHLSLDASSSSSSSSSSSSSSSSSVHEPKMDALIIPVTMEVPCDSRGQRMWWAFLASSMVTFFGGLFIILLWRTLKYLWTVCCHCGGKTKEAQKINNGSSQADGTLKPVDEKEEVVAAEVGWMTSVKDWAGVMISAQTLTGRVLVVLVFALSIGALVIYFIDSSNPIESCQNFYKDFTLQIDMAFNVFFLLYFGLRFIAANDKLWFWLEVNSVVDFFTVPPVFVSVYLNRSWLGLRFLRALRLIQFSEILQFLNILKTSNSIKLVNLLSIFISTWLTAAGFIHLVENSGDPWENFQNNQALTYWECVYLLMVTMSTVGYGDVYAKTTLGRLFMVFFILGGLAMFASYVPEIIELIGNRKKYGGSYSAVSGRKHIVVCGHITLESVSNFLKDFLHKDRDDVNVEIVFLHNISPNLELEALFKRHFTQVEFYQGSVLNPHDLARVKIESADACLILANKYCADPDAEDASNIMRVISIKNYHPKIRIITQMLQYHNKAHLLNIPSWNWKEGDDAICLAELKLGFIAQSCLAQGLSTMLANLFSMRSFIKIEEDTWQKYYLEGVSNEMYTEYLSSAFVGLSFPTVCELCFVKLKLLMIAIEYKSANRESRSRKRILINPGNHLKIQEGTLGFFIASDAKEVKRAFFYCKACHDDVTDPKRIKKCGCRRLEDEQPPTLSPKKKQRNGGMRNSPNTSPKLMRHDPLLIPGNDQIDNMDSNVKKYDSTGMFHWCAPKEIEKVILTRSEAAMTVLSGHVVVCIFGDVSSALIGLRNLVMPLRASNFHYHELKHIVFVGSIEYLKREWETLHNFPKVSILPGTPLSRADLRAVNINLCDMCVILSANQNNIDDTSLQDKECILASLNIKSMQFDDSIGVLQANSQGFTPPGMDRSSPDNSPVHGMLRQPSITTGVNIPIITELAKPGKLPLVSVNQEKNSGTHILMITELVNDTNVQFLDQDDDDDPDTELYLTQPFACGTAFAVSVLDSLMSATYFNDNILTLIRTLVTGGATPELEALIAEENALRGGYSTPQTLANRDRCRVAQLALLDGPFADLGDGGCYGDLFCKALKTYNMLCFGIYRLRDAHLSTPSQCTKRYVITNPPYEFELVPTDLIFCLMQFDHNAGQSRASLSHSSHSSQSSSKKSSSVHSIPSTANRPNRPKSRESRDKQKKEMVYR

For the compound `C=C(C)[C@H](CC=C(C)C)Cc1c(O)cc(OC)c2c1O[C@H](c1ccc(O)cc1O)CC2=O` [kurarinone], the “half-activation voltage (V1/2) of single-channel open-probability” value in experiment [1] (10 μM intracellular Ca2+, control 68.7±3.7 mV) stood at 43.7±2.1 mV. Also, the single-channel conductance in experiment [1] (10 μM intracellular Ca2+, control 221.1±16.4) is recorded as 238.3±8.7 pS. Moreover, the “average opening-time of single channel” value in experiment [1] (50 mV, 2.98+/−0.34 ms in absence) turned out to be 5.77 ± 0.90 ms. For the same compound, the “average closing time of single channel” value in experiment [1] (50 mV, 3.69±0.80 ms in absence) was 3.60 ± 4.1 ms. Moreover, in experiment [2] (5 mg/kg, vehicle 10.9±1.4), the “total voiding frequency for 3 hours” value turned out to be 6.9±0.8. The “effect on voiding frequency” value in experiment [2] (0.5 and 5 mg/kg) is listed as “reduced the voiding frequency for SHR in a dose-dependent manner”.
